Test results as given in patent US20120129787A1, “Modified oligopeptides with anticancer properties and methods of obtaining them” (priority 2010, published 2012).

Assays:
[1] = test system: benzidine skin sarcoma; assay: Anti-cancer activity on benzidine skin sarcoma in Barbados mice; type: in vivo; conditions: mice with benzidine sarcoma
Method: Study of the Anti-Cancer Activity of Anticanum on Benzidine Sarcoma. Before applying it to the silica gel, 7 ml of a solution of 2% benzidine and 0.9% sodium chloride was added until an opalescent suspension was formed (1 g silica gel for 5 ml NaCl solution). Twenty-five Barbados mice of both sexes with a weight of 18-20 g that were kept on a vivarium diet were administered benzidine and phorbol acetate immobilized on silica gel subcutaneously near the neck every three days. After two weeks, 18 animals had developed tumors of different sizes in the form of a small bump on the neck near the silica gel granulomas. Each group of animals was administered the corresponding compound parenterally at a dose of 100 mcg/kg weight twice a day for two weeks, beginning at 16 days after administration of the carcinogen.

[2] = test system: HeLa cells; assay: Effect of MPs on HeLa cells: number of surviving cells versus concentration; type: cell-based
Excerpt: In establishing the minimum concentration of MPs that will slow the growth of cells, a comparison was made between the number of surviving cells and the concentration of MPs in the solution.

CC(=O)O[C@@]12CO[C@@H]1C[C@H](O)[C@@]1(C)C(=O)[C@H](O)C3=C(C)[C@@H](OC(=O)[C@H](O)[C@@H](NC(=O)OC(C)(C)C)c4ccccc4)C[C@@](O)([C@@H](OC(=O)c4ccccc4)[C@H]21)C3(C)C [Taxotere]
Weight of Animal, Before Treatment [1]: 27 ± 2 g
Number of live cells after incubation, % ([2]; dose 20 mcg/ml): 93%
Number of live cells after incubation, % ([2]; dose 40 mcg/ml): 91%
Number of live cells after incubation, % ([2]; dose 60 mcg/ml): 0.12%
Number of live cells after incubation, % ([2]; dose 100 mcg/ml): 92%
Number of live cells after incubation, % ([2]; dose 120 mcg/ml): 101%
